According to patent US20030130200A1, “Small peptides and methods for treatment of asthma and inflammation” (Hisatek, LLC, priority 1997, published 2003):
Where no end group is shown, it is not given here. The star is where a group is joined. For = O=C*

Test system: mast cells
Assay: Rat skin model for inhibition of mast cell degranulation induced by Compound 48/80 (area of capillary permeability/bluing)
Type: in vivo, rat (male Sprague-Dawley)
Description: The Rat Skin Model for Determination of Inhibition of Mast Cell Degranulation
Allergy induced asthma results from exposure of substances (allergens) to which an organism has become hypersensitized. Exposure to allergen results in degranulation of mast cells in the lung, releasing leukotrienes and histamines. […] Respiratory symptoms resulting from such an exposure range from mild (itching and sneezing) to potentially fatal (asthma), including in extreme chronic cases death by anaphylaxis.
In this model, the blood plasma of the experimental rat is labeled with the dye trypan blue. This soluble dye is carried in the bloodstream as a passive marker of plasma itself, and is excluded from live cells. Intact blood vessels including the capillary system, retain this dye under normal circumstances. A compound, which induces degranulation of mast cells (resulting in leukotriene and histamine release), is injected into the skin to simulate allergen-induced degranulation. In these experiments, Compound 48/80 was used for this purpose. In the events following leukotriene and histamine release, capillary permeability is increased, and plasma, dyed blue, leaks from capillaries and dyes the skin surrounding the injection site blue. The area of bluing is a measure of the amount of Compound 48/80 injected.
A compound can be tested for “anti-leukotriene” and/or “anti-histamine” activity by mixing it with Compound 48/80 prior to injection.
The rat skin model was undertaken and validated. Various peptides were tested at a predetermined dose for anti-leukotriene and/or anti-histamine activity. The dose selected allowed a general comparison to f-Met-Leu-Phe, which was standard compound for comparison.
A “dose response” titration was performed for some compounds and compared with the standard compound. Observing serial decreases in the size areas of capillary permeability using serially smaller doses of the putative inhibitory compound validates the inhibition of leukotriene and/or histamine release observed in the initial predetermined dose test.
Reagents were obtained from Sigma or Aldrich, with the exception of ketamine, a veterinary anaesthetic that was obtained from various veterinary suppliers. The rats used were male Sprague-Dawley breed, 220-240 g at time of purchase from B&K International.
For the rat skin reaction, rats were anaesthetized with 0.25 ml 10 mg/ml ketamine. 1.0 ml trypan blue in saline (sterile filtered) was administered in a tail vein, and the back of the rat was shaved. Four intradermal injection sites per rat were used for test and control injections.
Compound 48/80 was prepared as a 1.5 mg/ml stock solution in saline. […] Serial dilutions in saline to working levels were prepared just prior to injection of each rat.
Peptides were prepared as a 23 mM stock solution in DMSO, and stored at −20° C. between experiments. At the time of use, the frozen stock solutions were thawed, and appropriate aliquots added to dilutions of Compound 48/80, along with appropriate amounts of DMSO, to result in the ratio of 5 μl DMSO to 0.1 ml aqueous Compound 48/80.
For injections, 0.1 ml Compound […], +/− test compounds were injected intradermally into anaesthetized, dyed, and shaved rats. Following a 15 minute incubation, the rats were sacrificed by cervical dislocation and the back skin was evulsed and placed on a light box. An image of the backlit skin was digitized using a CCD video capture camera and compatible hardware/software. The digitized image was analyzed using a scientific graphics analysis software package, and the areas of capillary permeability (bluing) were integrated and digital values were obtained for further analysis.
A dose response curve was generated using Compound 48/80 at various doses from ca. 0.01 μg through ca 15 μg. […] A dose of 0.15 μg of Compound 48/80 was selected for conducting further tests.
A dose response curve was prepared for the standard compound, f-Met-Leu-Phe, using the selected dose of 0.15 μg Compound 48/80. […]

f-Met-Leu-Phe-Phe (For-MLFF) [Example 9]
Inhibition of degranulation induced by Compound 48/80, dose response curve (doses of 0 to about 230 nM peptide, 0.15 μg Compound 48/80 (FIG. 2, FIG. 3)): Surprisingly remarkable inhibition of degranulation induced by Compound 48/80 was clearly shown
% Degranulation (percent mast cell degranulation produced by 48/80, 100 nanomoles peptide, 0.15 μg Compound 48/80): 1-3%
